Laboratory results from PubChem BioAssay (NCI).
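Assay format: 96-well plates, 48-hour exposure. At the GI50, growth is halved. TGI denotes the concentration required for complete inhibition of growth.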

Key:
Experiment in all cases: NCI anticancer screen, dose series, 48 h
[1] = test system: K-562 leukemia
[2] = test system: EKVX NSCLC
[3] = test system: SNB-75 CNS
[4] = test system: RPMI-8226 leukemia
[5] = test system: HL-60(TB) leukemia
[6] = test system: SNB-19 CNS
[7] = test system: DU-145 prostate
[8] = test system: 786-0 renal
[9] = test system: SR leukemia
[10] = test system: SK-MEL-2 melanoma
[11] = test system: M14 melanoma

| Structure (SMILES) | TGI [1] [µM] | TGI [2] [µM] | TGI [3] [µM] | TGI [4] [µM] | TGI [5] [µM] | TGI [6] [µM] | TGI [7] [µM] | TGI [8] [µM] | TGI [9] [µM] | TGI [10] [µM] | TGI [11] [µM] | GI50 [7] [µM] | GI50 [11] [µM] |
| --- | --- | --- | --- | --- | --- | --- | --- | --- | --- | --- | --- | --- | --- |
| COc1cc(OC)nc(-n2c(N)c(C(=O)O)c3ccc([N+](=O)[O-])cc3c2=O)n1 | > 100 | > 100 | > 100 | > 100 | > 100 | > 100 | > 100 | > 100 | > 100 | > 100 | > 100 | – | – |
| NC(=O)NC(=O)c1cccc(NC(=O)CCl)c1 | > 43.4 | 26.5 | 7.06 | 13.6 | 1.97 | > 26.1 | 5.42 | 3.91 | 3.92 | 15.1 | – | – | – |
| COc1cccc(CCn2c(N)c(C#N)c3ccc([N+](=O)[O-])cc3c2=O)c1 | 11.6 | > 31.6 | > 46.4 | – | > 46.4 | > 100 | > 46.4 | > 46.4 | 0.922 | > 46.4 | > 31.6 | – | – |
| N#Cc1c(N)c2c(c(-c3ccccc3)c1-c1ccccc1)C(=O)N(O)C2=O | > 100 | > 100 | > 100 | > 100 | > 100 | > 100 | > 100 | > 100 | > 100 | > 100 | > 100 | – | – |
| CC12CCC(=O)[C@@]1(C)CCCC2O (some centres not stated) | > 100 | > 100 | > 100 | > 100 | > 100 | > 100 | > 100 | > 100 | > 100 | > 100 | > 100 | – | – |
| Cc1ccc(S(=O)(=O)NNC(=O)Nc2ccc([N+](=O)[O-])cc2)cc1 | > 100 | > 100 | > 100 | 78.5 | > 100 | > 100 | > 100 | 64.6 | > 100 | > 100 | > 100 | – | – |
| COC(=O)c1cc2c(cc1C(=O)OC)[C@@]1(C)CCCC(C)(C)C1CC2 (some centres not stated) | 76.1 | 30.1 | 82.1 | 34.3 | 31.9 | 53.7 | 33.7 | 36.7 | 57.7 | 46.7 | 70.8 | – | – |
| CCCC(C(=O)Nc1cccc2[nH]cnc12)C(=O)OCC (configuration not stated) | > 100 | > 100 | > 100 | > 100 | > 100 | > 100 | > 100 | > 100 | > 100 | > 100 | > 100 | – | – |
| CC(=O)OC(C)c1cc2c(s1)C(=O)c1ccsc1C2=O (configuration not stated) | 0.473 | 2.74 | 0.301 | 0.486 | 0.0364 | 0.317 | 0.242 | 0.978 | 0.365 | 0.927 | 0.604 | – | – |
| CCN1C/C(=C\c2ccc(Cl)cc2)c2[nH]c(=O)c(C#N)c(-c3ccc(Cl)cc3)c2C1 | > 100 | > 100 | – | > 100 | > 100 | > 100 | > 100 | > 100 | > 100 | > 100 | > 100 | – | – |
| N#CC(C#N)=Cn1c(=S)[nH]c2ccc([N+](=O)[O-])cc21 | > 100 | > 100 | > 100 | > 100 | > 100 | > 100 | > 100 | > 100 | > 100 | > 100 | > 100 | – | – |
| CCOC(=O)c1nc2cc(F)cc(F)c2[nH]c1=O | > 100 | – | > 100 | > 100 | > 100 | > 100 | > 100 | > 100 | > 100 | > 100 | > 100 | – | – |
| C=CCN1C(=O)CS/C1=N\NC(=O)CSc1nc2ccccc2c(=O)n1CC | > 100 | > 100 | > 100 | > 100 | > 100 | > 100 | > 100 | > 100 | > 100 | > 100 | > 100 | – | – |
| Oc1cccc2ccc(Br)nc12 | > 100 | > 100 | > 100 | > 100 | > 100 | > 100 | > 100 | > 100 | > 100 | – | > 100 | – | – |
| COC(=O)/C(C#N)=C/c1cc(C(C)(C)C)c(O)c(C(C)(C)C)c1 | > 47.8 | 11.9 | 17.1 | 3.54 | 4.47 | > 100 | > 100 | 12.2 | 11 | 4.92 | 13.6 | – | – |
| CN1CCN(Cc2ccccc2)CC1CC#N (configuration not stated) | > 100 | > 100 | > 100 | > 100 | > 100 | > 100 | > 100 | > 100 | > 100 | – | – | – | – |
| COc1cc([C@@H]2c3cc4c(cc3[C@@H](NC(=O)NO)[C@H]3COC(=O)[C@H]23)OCO4)cc(OC)c1O | > 100 | > 100 | – | > 100 | > 100 | > 100 | > 100 | > 100 | > 100 | > 100 | > 100 | 7.27 | 37 |
| Cc1ccc2c(c1)CC1(C2)Cc2ccc(C)cc2C1=O (configuration not stated) | > 100 | 88.7 | 84.3 | 95.3 | 63.4 | > 100 | > 100 | 63 | 57 | 47.1 | 71.6 | – | – |
